Assay results: patent US10702604B2, “Lipid nanocapsules comprising a retinoid, nanodispersion and composition containing the same, process for preparing the same and use thereof in dermatology” (GALDERMA RESEARCH & DEVELOPMENT, priority 2012, dated 2020)

Assays:
ear of BALB/C mice = assay: Tolerance study: pro-inflammatory effect after single application to the mouse ear (ear thickness); type: in vivo; conditions: single topical application, 0.01% in acetone, 20 μl
Method: The aim of the study is to evaluate the effect of a composition according to the invention on the pro-inflammatory activity associated with retinoids in general.
A single application of 20 μl of the test products was administered to the ear of the mice on day 1. Clinical observations and measurements of the mouse ear thickness, directly linked to inflammation, are performed from day 2 up to day 12.

[1] = Chemical stability of compound A in gel compositions (HPLC-UV assay); type: physicochemical; conditions: 4° C., room temperature and 40° C., up to 6 to 7 months
Method: Compositions 1 and 2 according to Example 3 were placed under various stability conditions: 4° C., room temperature and 40° C., and were monitored for 6 to 7 months. At each stability checkpoint, compound A was assayed by HPLC-UV.

[2] = Maximum solubility of compound A in various oily phases; type: physicochemical
[3] = Chemical stability of compound A in oily phases (HPLC-UV); type: physicochemical
Method: The stability of the active agent was evaluated by liquid chromatography coupled to a UV detector (HPLC-UV).

[4] = in caprylic/capric acid triglycerides (Miglyol 812N)
[5] = in diisopropyl adipate (Crodamol DA)
[6] = in macrogol oleate (Labrafil M1944CS)
[7] = in propylene glycol dicaprylate/dicaprate (Myritol PC)
[8] = in propylene glycol monolaurate (Lauroglycol FCC)

- Chemical stability of compound A in the gel compositions [1]: chemically stable
- Maximum solubility [2, 4]: 0.019 % m/m
- Maximum solubility [2, 5]: 0.297 % m/m
- Maximum solubility [2, 6]: 0.156 % m/m
- Maximum solubility ([2]; in mineral oil): 0.0001 % m/m
- Maximum solubility ([2]; in octyldodecanol (Eutanol G)): 0.137 % m/m
- Maximum solubility [2, 7]: 0.069 % m/m
- Maximum solubility ([2]; in propylene glycol monocaprylate (Capryol 90)): 0.802 % m/m
- Maximum solubility [2, 8]: 0.296 % m/m
- Maximum solubility ([2]; in sweet almond oil): 0.011 % m/m
- Stability [3, 4]: 6 months RT/40 °C
- Stability [3, 5]: 6 months RT/40 °C
- Stability [3, 6]: 6 months RT/40 °C
- Stability ([3]; in octyldodecanol (Eutanol G)): Unstable
- Stability [3, 7]: Unstable
- Stability ([3]; in propylene glycol monocaprylate (Capryol 90), RT = room temperature): 6 months RT/40 °C
- Stability [3, 8]: 6 months RT/40 °C
- Stability ([3]; in sweet almond oil): 6 months RT/40 °C
SMILES: CC(C)(C)c1cc(-c2cc(-c3ccc(C(=O)O)cc3)ccc2OCCO)ccc1N1CCCC1 [Compound A, 3″-tert-butyl-4′-(2-hydroxyethoxy)-4″-pyrrolidin-1-yl-[1,1′;3′,1″]-terphenyl-4-carboxylic acid]
- Increase in the thickness of the mouse ear versus acetone alone (ear of BALB/C mice): 59%
